In one assay the test system is Celery cabbage soft rot. Nature of the assay: Controlling effect on Celery cabbage soft rot, field test. The assay is classed as in vivo. The following applies: sprayed 3 times at 7-day intervals. Here is the method:
(§1) Preventive value=(1−disease severity of treated lot/disease severity of non-treated lot)×100
(§2) (Disease severity may be replaced by degree of damage or ratio of damage.)
Commercially available Agrepto wettable powder containing 25% of streptomycin sulfate (20% as streptomycin) or commercially available Iminoctadine ABS salt [trade name: Bellkute wettable powder (40%)] was diluted to a predetermined concentration and tested. The preparations produced according to Preparation Examples 1 and 3 were also diluted to predetermined concentrations. In early August, Celery cabbages were sown in 5.2 m^2 per lot in triplicate. From 20 September when the plant reached 10-leaf stage, the predetermined agents were continually sprayed 3 times with intervals of 7 days. In late October, the disease severity and degree of damage of Celery cabbage soft rot were investigated using 4-rank indices.
1: Only a portion of outer leaves damaged;
2: A portion of outer leaves and head portion damaged; and
3: Most part of head portion damaged.
Degree of damage=Σ(Index×the number of individuals)÷(the number of individuals searched×3)×100

The test system of assay [1] is vegetables' soft rot disease bacterium (Erwinia carotovora sub-sp. cartovora). Nature of the assay: in vitro antibacterial test on PDA culture medium. In kind it is cell-based. More on the design: key to growth of bacteria: +++: Colonies grew well; ++: Growth was slightly suppressed; +: Growth was strongly suppressed but proliferation was observed; −: No proliferation was observed. The note with it: for growth of bacteria: 28° C., after 3 days. Here is the method:
(§3) Each agent was dissolved in sterilized water and added to PDA culture medium (Nissui Seiyaku Co., Ltd.) and Japanese apricot canker bacterium (Pseudomonas syringae pv. morsprunorum), vegetables' soft rot disease bacterium (Erwinia carotovora sub-sp. cartovora), and citrus canker bacterium (Xanthomonas campestris pv. citri) were inoculated.
(§4) The Japanese apricot canker bacterium was cultivated at 21° C., the vegetables' soft rot disease bacterium and citrus canker bacterium were cultivated at 28° C. After 3 days from the start of cultivation, the growth of bacteria was monitored.

Assay [2] concerns Japanese apricot canker bacterium (Pseudomonas syringae pv. morsprunorum). Put plainly: in vitro antibacterial test on PDA culture medium. In kind it is cell-based. More on the design: key to growth of bacteria: +++: Colonies grew well; ++: Growth was slightly suppressed; +: Growth was strongly suppressed but proliferation was observed; −: No proliferation was observed. The following applies: for growth of bacteria: 21° C., after 3 days. Here is the method: as §3, §4

For assay [3], the system named is citrus canker bacterium (Xanthomonas campestris pv. citri). Put plainly: in vitro antibacterial test on PDA culture medium. In kind it is cell-based. Details: key to growth of bacteria: +++: Colonies grew well; ++: Growth was slightly suppressed; +: Growth was strongly suppressed but proliferation was observed; −: No proliferation was observed. The note with it: for growth of bacteria: 28° C., after 3 days. Here is the method:
as §3, §4

The next assay relates to genus Xanthomonas. The following applies: from Japanese Patent Publication No. Sho 43-27335; cited from earlier work.
In the next assay the test system is genus Pseudomonas. The following applies: from Japanese Patent Publication No. Sho 43-27335; cited from earlier work.
Assay [4] relates to Japanese apricot canker bacterium (Pseudomonas syringae pv. morsprunorum). Nature of the assay: Controlling effect on Japanese apricot bacterial canker (2), potted seedlings, spray inoculation. In kind it is in vivo. The note with it: leaf spray before inoculation, after 7 days. How it is done:
as §1
Japanese apricot seedlings rested for the winter season in the open field were cut to the height of 60 cm and transplanted to 1/5000 a Wagner pots and allowed to sprout and develop leaves in a greenhouse were tested. After giving fine bruises to the leaves with Carborandum, water was sprayed sufficiently to flow away the Carborandum. After air drying, the agents diluted to predetermined concentrations with water were sprayed onto the leaves, which were air dried again. Japanese apricot canker bacterium (Pseudomonas syringae pv. morsprunorum) preliminarily cultivated in PPG medium (200 g of potato, 3 g of disodium phosphate (dodecahydrate), 0.5 g of dikalium phosphate, 5 g of peptone, 3 g of sodium chloride, 5 g of glucose, 1 L of distilled water) was inoculated by spraying together with the medium. The inoculated plants were placed under controlled humid conditions (temperature 20° C., humidity 99% to 100%) for 40 hours and then transferred to a greenhouse to allow the disease to emerge. After 7 days, the lesion area in each lot was measured and disease severity and preventive value were calculated according to the following indices.
1: Several lesions on the leaves of one branch;
2: The damaged area was less than ¼ of the total area of the leaves on one branch;
3: The damaged area was from ¼ to less than ½ of the total area of the leaves on one branch;
4: The damaged area was from ½ to less than ⅔ of the total area of the leaves on one branch; and
5: The damaged area was ⅔ or more of the total area of the leaves on one branch.
Disease severity=Σ(Index×The number of data)÷(Total number of data×5)×100

The subject of assay [5] is citrus canker bacterium (Xanthomonas campestris pv. citri). Nature of the assay: Controlling effect on citrus canker, pot-grown Watson pomelo leaves. The assay is classed as in vivo. The note with it: 20 leaves, after 1 month. How it is done:
as §1, §2
Commercially available Agrepto wettable powder containing 25% of streptomycin sulfate (20% as streptomycin) or commercially available Iminoctadine ABS salt [trade name: Bellkute wettable powder (40%)] was diluted to a predetermined concentration and tested. The preparations produced according to Preparation Examples 2 and 4 were also diluted to predetermined concentrations. 20 new leaves of pot-grown Watson pomelo were tested for each of the preparations. After wounding the leaves with a needle, each predetermined agent solution was sprayed thereon and the leaves were air dried. Then, citrus canker bacterium (Xanthomonas campestris pv. citri) was inoculated with the density of 1×10^6 cells. Thereafter, the trees were put into controlled cultivation in a greenhouse. After 1 month, the emergence of citrus canker was investigated.

Assay [6] has as its system Japanese apricot bacterial canker. Put plainly: Controlling effect on Japanese apricot bacterial canker (1), field trees, spray. The following applies: sprayed four times at 10-day intervals. In kind it is in vivo. How it is done: as §1
Commercially available Agrepto wettable powder containing 25% of streptomycin sulfate (20% as streptomycin) or commercially available Iminoctadine ABS salt [trade name: Bellkute wettable powder (40%)] was diluted to a predetermined concentration and tested. Also, the preparation produced according to Preparation Example 2 was diluted to a predetermined concentration and tested.
Young 5-year old Japanese apricot trees which frequently suffered from Japanese apricot bacterial canker in the preceding year, were tested. Predetermined agents were continually sprayed four times with intervals of 10 days starting from early April. In May, the disease severity of Japanese apricot bacterial canker was searched on 100 fruits per tree for total 5 trees in each lot and the results were evaluated by 5-rank indices.
The damaged fruits were searched and disease severity and preventive value were calculated using the indices and equation below.
2: Medium=6 to 15 lesions
6: Extreme=31 or more lesions or with cracks
Disease severity=Σ(Index×The number of damaged fruits per degree)÷(6×The number of tested fruits)×100

Counter-ions that a name gives are not always drawn.

In the assay with Celery cabbage soft rot (100 ppm), `CCn1cc(C(=O)O)c(=O)c2cc3c(cc21)OCO3` [Oxolinic acid, oxolinic acid] displayed a Degree of damage of 3.3. The compound further came in with a Preventive value in the assay on Celery cabbage soft rot (100 ppm) of 85. The “The number of individuals damaged” value in the assay on Celery cabbage soft rot (100 ppm) is listed as 4. In addition, the growth of bacteria entry was “−” in assay [1] (1 ppm in PDA medium); “−” in [1] (10 ppm in PDA medium); “++” in assay [2] (1 ppm in PDA medium); “−” in [2] (10 ppm in PDA medium); “+++” in assay [3] (1 ppm in PDA medium); “++” in [3] (10 ppm in PDA medium).

In the case of `N=C(N)NCCCCCCCCNCCCCCCCCNC(=N)N.O=S(=O)(O)O` [bis (8-guanidiooctyl) amine sulfate], the “in vitro antibacterial activity against plant pathogenic bacteria” value (“in vitro antibacterial activity” below) in the assay with genus Xanthomonas and in the assay with genus Pseudomonas was “no activity” throughout.

With `Cl.N=C(N)NCCCCCCCCCCCCNCCCCCCCCCCCCNC(=N)N` [bis (12-guanidinododecyl) amine hydrochloride], the “in vitro antibacterial activity” value in the assay with genus Xanthomonas and with genus Pseudomonas was “revealed to have in vitro antibacterial activity” in each case.

Turning to `N=C(N)NCCCCCCCCCCNCCCCCCCCCCNC(=N)N.O=S(=O)(O)O` [bis (10-guanidinodecyl) amine sulfate], the “in vitro antibacterial activity” value in the assay on genus Xanthomonas and in the assay on genus Pseudomonas was “revealed to have in vitro antibacterial activity” throughout.

For the compound `N=C(N)NCCCCCCCCNCCCCCCCCNC(=N)N` [Iminoctadine ABS salt, bis(8-guanidinooctyl)amine], the values for the Disease severity in assay [4] (200 ppm) and in assay [6] (200 ppm) were 19 and 1.2, respectively. Further, the Preventive value in [4] (200 ppm) was found to be 73; in assay [5] (50 ppm), 55; in assay [5] (100 ppm), 75; in assay [5] (400 ppm) it was 85; in [6] (200 ppm), 68; in the assay on Celery cabbage soft rot (200 ppm), 71. Further, the “Ratio of suffering leaves” value turned out to be 45 in [5] (50 ppm), 25 in assay [5] (100 ppm) and 15 in assay [5] (400 ppm). Further, the “The number of suffering leaves” value in [5] (50 ppm) amounted to 9; in assay [5] (100 ppm), 5; in assay [5] (400 ppm), 3. Also, the “The number of damaged fruits” value in assay [6] (200 ppm) amounted to 18. Further, the Degree of damage with Celery cabbage soft rot (200 ppm) stood at 6.4. The “The number of individuals damaged” value in the assay with Celery cabbage soft rot (200 ppm) was found to be 12. The growth of bacteria entry in [1] (1 ppm in PDA medium) is recorded as “+++”; in assay [1] (10 ppm in PDA medium), “+++”; in [1] (100 ppm in PDA medium), “+++”; in assay [2] (1 ppm in PDA medium) it was “+++”; in assay [2] (10 ppm in PDA medium), “+++”; in [2] (100 ppm in PDA medium), “++”. In addition, the growth of bacteria entry in assay [3] (1 ppm in PDA medium), in assay [3] (10 ppm in PDA medium) and in assay [3] (100 ppm in PDA medium) was “+++” each time. Also, the “suppression of growth in vitro” value in assay [1] (even added at 100 ppm), in [2] (even added at 100 ppm) and in [3] (even added at 100 ppm) was “did not suppress the growth” in each case.

Regarding `[H]/N=C(/N)N[C@H]1[C@H](O)[C@@H](O)[C@H](O[C@@H]2O[C@@H](C)[C@](O)(C=O)[C@H]2O[C@@H]2O[C@@H](CO)[C@H](O)[C@@H](O)[C@@H]2NC)[C@@H](N/C(N)=N\[H])[C@@H]1O` [Streptomycin sulfate, streptomycin sulfate], the Disease severity was 24 in assay [4] (125 ppm) and 1.6 in assay [6] (125 ppm). Besides, the Preventive value came to 67 in assay [4] (125 ppm); 60 in assay [5] (62.5 ppm); 80 in [5] (125 ppm); 95 in assay [5] (500 ppm); 57 in [6] (125 ppm); 79 in the assay on Celery cabbage soft rot (125 ppm). The “Ratio of suffering leaves” value in assay [5] (62.5 ppm) was determined as 40; in [5] (125 ppm), 20; in assay [5] (500 ppm), 5. Moreover, the “The number of suffering leaves” value in assay [5] (62.5 ppm) came to 8; in [5] (125 ppm) it was 4; in [5] (500 ppm) it was 1. Moreover, the “The number of damaged fruits” value in assay [6] (125 ppm) is given as 23. In the assay on Celery cabbage soft rot (125 ppm), this compound registered a Degree of damage of 4.6. The “The number of individuals damaged” value with Celery cabbage soft rot (125 ppm) is listed as 10. The growth of bacteria entry in [1] (1 ppm in PDA medium) was “+”; in assay [1] (10 ppm in PDA medium), “−”; in [1] (100 ppm in PDA medium) it was “−”; in assay [2] (1 ppm in PDA medium), “++”; in assay [2] (10 ppm in PDA medium), “+”; in assay [2] (100 ppm in PDA medium) it was “−”. In addition, the results for the growth of bacteria result in assay [3] (1 ppm in PDA medium), in assay [3] (10 ppm in PDA medium) and in assay [3] (100 ppm in PDA medium) were “++”, “+” and “−”, respectively.

These data come from US6352960B1, “Controlling agent for agricultural or horticultural bacterial disease” (Meiji Seika Kaisha, Ltd., priority 1998, dated 2002).
